Our source for the Ki and Ratio Ki values is ChEMBL document CHEMBL3817835, “Progress in the development of small molecules as new human A3adenosine receptor ligands based on the 3-thiophenylcoumarin core” (Medchemcomm, 2016).

In one assay the target is T1, Adenosine receptor A1 (Homo sapiens, UniProt P30542).
T1 sequence (P30542 whole entry): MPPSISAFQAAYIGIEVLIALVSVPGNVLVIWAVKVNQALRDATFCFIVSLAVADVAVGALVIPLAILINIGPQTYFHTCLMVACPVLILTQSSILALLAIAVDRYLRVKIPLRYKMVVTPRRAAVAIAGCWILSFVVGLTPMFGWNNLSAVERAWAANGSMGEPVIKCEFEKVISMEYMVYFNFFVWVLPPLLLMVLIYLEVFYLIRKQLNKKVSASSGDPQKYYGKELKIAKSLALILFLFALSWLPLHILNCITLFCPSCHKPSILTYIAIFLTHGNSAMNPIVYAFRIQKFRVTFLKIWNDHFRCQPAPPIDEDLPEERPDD
The assay is described as follows: Displacement of [3H]CCPA from human A1 adenosine receptor expressed in CHO cells. Format: cell-based.

The target of a further assay is Adenosine receptor A2a (Homo sapiens, UniProt P29274). The assay is described as follows: Displacement of [3H]NECA from human A2A adenosine receptor expressed in CHO cells. The format is cell-based. Background: Displacement assays read how much labelled ligand stays bound in the presence of the test substance.
Sequence of Adenosine receptor A2a (P29274 whole entry): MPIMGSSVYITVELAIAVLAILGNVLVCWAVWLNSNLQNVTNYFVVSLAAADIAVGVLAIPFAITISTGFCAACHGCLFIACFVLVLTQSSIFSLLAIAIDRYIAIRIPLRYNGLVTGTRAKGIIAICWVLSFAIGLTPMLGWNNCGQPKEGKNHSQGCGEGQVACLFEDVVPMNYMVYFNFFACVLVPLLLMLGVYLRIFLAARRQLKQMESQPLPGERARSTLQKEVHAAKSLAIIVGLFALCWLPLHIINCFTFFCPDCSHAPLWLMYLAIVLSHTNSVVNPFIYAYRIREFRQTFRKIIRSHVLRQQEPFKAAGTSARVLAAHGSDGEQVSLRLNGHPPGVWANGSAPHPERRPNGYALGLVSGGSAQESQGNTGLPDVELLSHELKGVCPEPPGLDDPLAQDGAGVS
In a further assay the target is Adenosine receptor A3 (Homo sapiens, UniProt P0DMS8). The assay is described as follows: Displacement of [3H]HEMADO from human A3 adenosine receptor expressed in CHO cells. Format: cell-based.
Sequence of Adenosine receptor A3 (P0DMS8 whole entry, looked up): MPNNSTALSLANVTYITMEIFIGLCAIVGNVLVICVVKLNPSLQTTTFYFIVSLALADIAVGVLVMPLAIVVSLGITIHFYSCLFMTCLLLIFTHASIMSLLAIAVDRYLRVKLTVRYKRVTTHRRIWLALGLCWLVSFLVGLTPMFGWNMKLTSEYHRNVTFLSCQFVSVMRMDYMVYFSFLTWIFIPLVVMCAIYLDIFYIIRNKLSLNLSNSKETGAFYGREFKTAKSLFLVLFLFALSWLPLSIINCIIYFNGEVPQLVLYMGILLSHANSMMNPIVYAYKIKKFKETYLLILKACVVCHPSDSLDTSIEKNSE
The next assay has as its target T2, Adenosine receptor A2b (Homo sapiens, UniProt P29275).
T2 sequence (P29275 whole entry): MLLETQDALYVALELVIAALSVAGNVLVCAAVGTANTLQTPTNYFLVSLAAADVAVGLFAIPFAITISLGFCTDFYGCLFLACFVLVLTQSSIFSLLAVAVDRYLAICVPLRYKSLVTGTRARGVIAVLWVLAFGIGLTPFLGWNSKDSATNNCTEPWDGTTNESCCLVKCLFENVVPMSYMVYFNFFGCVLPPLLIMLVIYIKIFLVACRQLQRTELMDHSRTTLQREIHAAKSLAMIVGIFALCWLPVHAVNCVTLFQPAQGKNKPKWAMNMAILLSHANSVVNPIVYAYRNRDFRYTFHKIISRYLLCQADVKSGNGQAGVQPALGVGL
The assay is described as follows: Antagonist activity at human A2B adenosine receptor assessed as inhibition of NECA-stimulated adenylyl cyclase activity. The format is functional.

Assay [1] deals with Adenosine receptors; A1 & A3 (Homo sapiens) (UniProt P30542+P0DMS8). The assay is described as follows: Selectivity index, ratio of Ki for human A1 adenosine receptor to Ki for human A3 adenosine receptor.
The species named for another assay is Homo sapiens. The assay is described as follows: Selectivity index, ratio of Ki for human A2 adenosine receptor to Ki for human A3 adenosine receptor.

What is called Ki is a dissociation constant, usually derived from enzyme kinetics or from competition with a known ligand. In the case of `O=c1oc2c(O)cccc2cc1-c1ccsc1`, the Ki on Adenosine receptor A1 was 5.92 µM; at Adenosine receptor A2a it was 9.87 µM; on Adenosine receptor A3, 2.87 µM; on Adenosine receptor A2b it was more than 30 µM.

For `O=c1oc2c(O)c(O)ccc2cc1-c1ccsc1`, the Ki at Adenosine receptor A1 was 3.36 µM; on Adenosine receptor A2a, 14.7 µM; on Adenosine receptor A3, 5.31 µM; at Adenosine receptor A2b it was more than 30 µM.

In the case of `CC(=O)Oc1cccc2cc(-c3cccs3)c(=O)oc12`, the Ki on Adenosine receptor A1 is more than 100 µM; on Adenosine receptor A2a, 18.8 µM; at Adenosine receptor A3, 2.58 µM; on Adenosine receptor A2b, more than 30 µM.

In the case of `CC(=O)Oc1cccc2cc(-c3ccsc3)c(=O)oc12`, the Ki at Adenosine receptor A1 is more than 100 µM; on Adenosine receptor A2a it was 14.7 µM; on Adenosine receptor A3, 1.82 µM; at Adenosine receptor A2b it was more than 30 µM.

Consider `O=c1oc2c(O)c(O)ccc2cc1-c1cc(Br)cs1`, for which the Ki was 16.3 µM on Adenosine receptor A1, 12.2 µM on Adenosine receptor A2a, 3.4 µM on Adenosine receptor A3 and more than 30 µM at Adenosine receptor A2b.

Regarding `CC(=O)Oc1ccc2cc(-c3cc(Br)cs3)c(=O)oc2c1OC(C)=O`, the Ki at Adenosine receptor A1 was more than 100 µM; at Adenosine receptor A2a, more than 100 µM; at Adenosine receptor A3, more than 100 µM; at Adenosine receptor A2b, more than 30 µM.

As for `O=c1oc2c(O)cccc2cc1-c1cccs1`, the Ki was 3.36 µM at Adenosine receptor A1, 7.48 µM at Adenosine receptor A2a, 1.43 µM on Adenosine receptor A3 and more than 30 µM on Adenosine receptor A2b.

`O=c1oc2c(O)cccc2cc1-c1cc(Br)cs1`: the Ki on Adenosine receptor A1 was more than 100 µM; on Adenosine receptor A2a, more than 100 µM; on Adenosine receptor A3 it was 0.746 µM; on Adenosine receptor A2b it was more than 30 µM. Further, the Ratio Ki (in assay [1]; in the assay filed under Homo sapiens) was 130 throughout.

Consider `O=c1oc2c(O)c(O)ccc2cc1-c1cccs1`, for which the Ki on Adenosine receptor A1 is 3.23 µM; at Adenosine receptor A2a, 9.98 µM; at Adenosine receptor A3 it was 4.83 µM; at Adenosine receptor A2b, more than 30 µM.

As to `CC(=O)Oc1cccc2cc(-c3cc(Br)cs3)c(=O)oc12`, the Ki on Adenosine receptor A1 was more than 100 µM; on Adenosine receptor A2a, more than 100 µM; on Adenosine receptor A3, 4.08 µM; at Adenosine receptor A2b, more than 30 µM.

For the molecule `CC(=O)Oc1ccc2cc(-c3cccs3)c(=O)oc2c1OC(C)=O`, the Ki is more than 100 µM on Adenosine receptor A1, more than 100 µM at Adenosine receptor A2a, 22.5 µM at Adenosine receptor A3 and more than 30 µM on Adenosine receptor A2b.

Turning to `CC(=O)Oc1ccc2cc(-c3ccsc3)c(=O)oc2c1OC(C)=O`, the Ki is more than 100 µM at Adenosine receptor A1, 20.6 µM at Adenosine receptor A2a, 3.6 µM at Adenosine receptor A3 and more than 30 µM at Adenosine receptor A2b.
